Measurements taken from US12116358B2, “Substituted indoles and methods of use thereof” (EPIZYME, INC., priority 2018, dated 2024).
Where two headings read alike, the source gives them in different places.

Experiments:
SETD2(1434-1711) = molecular target: T1, SETD2(1434-1711) (Homo sapiens, UniProt Q9BYW2); assay: SETD2 (1434-1711) assay; type: biochemical; settings: read-out: SETD2 (1434-1711)
T1 construct: SETD2 (1434-1711) Assay; catalogue N/A
T1 sequence (Q9BYW2 1434-1711): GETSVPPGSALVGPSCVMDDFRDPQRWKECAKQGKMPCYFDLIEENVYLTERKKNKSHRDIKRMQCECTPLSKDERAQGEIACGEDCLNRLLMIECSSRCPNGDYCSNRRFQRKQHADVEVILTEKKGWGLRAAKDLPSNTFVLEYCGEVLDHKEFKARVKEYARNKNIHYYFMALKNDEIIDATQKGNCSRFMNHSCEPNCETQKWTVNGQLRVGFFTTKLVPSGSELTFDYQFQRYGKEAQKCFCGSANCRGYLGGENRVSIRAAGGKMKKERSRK

H3K36me3 in A549 cells = assay: In-Cell Western (ICW) assay of SETD2 inhibitors (A549 assay); type: cell-based, human; settings: A549 cells, read-out: SETD2 A549
Procedure: In-Cell Western (ICW) Assay of SETD2 Inhibitors (A549 Assay)
Representative Compounds of the Disclosure were tested in the A549 assay according the following protocol.
1. Reagents and Consumables:
Prepare plates with compounds. Seed A549 cells to the plates with compounds, 4,000 cells/well, 50 μl/well. Put the plates at room temperature on a non-vibrating surface for 20 minutes before placing in the incubator. Incubate the plate at 37° C. incubator with CO2 for 3 days. Remove plate from incubator and bring to room temperature. Blot media out of the plate and add 50 μL of ice cold 100% methanol. Incubate 30 minutes at room temperature. Remove methanol by aspiration. Wash 3× with PBST. Add 50 μL of Blocking Buffer+0.1% Tween 20. Incubate 1 hour. Remove Blocking Buffer, wash 3× with PBST. Add 20 μL of H3K36me3 (1:1000 dilution). […] Incubate overnight at 4° C. Wash plate 5× with PBS-T. Add 20 μL of DRAQ5 (1:1000) and IRDye 800CW Goat anti-Rabbit IgG (1:500). Incubate for 1 hour in the dark. Wash plate 5× with PBS-T. Wash plate 3× with water. Dry by blotting on paper towel, then centrifuge plate upside down on a thin layer of paper towels for 1 minute at 1000 rpm to remove excess reagent. Leave plate uncovered for ˜10 minutes out of direct light before reading. Read on Licor instrument.
4. Licor Instrument Settings:
Preset: Plate; Resolution: 84 μm; Quality: low; Focus offset: 4.0; 700 channel intensity: 2; and 800 channel intensity: 3.

Compound	IC50 (SETD2(1434-1711)) [nM]	IC50 (H3K36me3 in A549 cells; Homo sapiens) [nM]	IC50 (H3K36me3 in A549 cells) [nM]
Cc1ccc(F)c2cc(C(=O)N[C@@H]3CCC[C@@H](N4CCN(C5CCOC5)CC4)C3)[nH]c12 (some centres unmarked) [compound 925]	8800	> 2000	–
CC(=O)N1CCN([C@@H]2CCC[C@@H](NC(=O)c3cc4c(F)ccc(C)c4[nH]3)C2)[C@@H](C)C1 [compound 1074]	4500	> 2000	–
CCN1CCN(c2cccc(NC(=O)c3cc4c(F)ccc(C)c4[nH]3)c2)CC1=O [compound 88]	50	–	200
Cc1ccc(F)c2cc(C(=O)NC3CCCC(N4CCC(=O)N(C)CC4)C3)[nH]c12 (centres unmarked) [compound 944]	30	–	100
Cc1cccc2cc(C(=O)NC3CCN(C(=O)CCCN)CC3C)[nH]c12 (centres unmarked) [compound 543]	2600	–	> 25000
Cc1ccc(F)c2cc(C(=O)Nc3cccc(N4C5CCC4COC5)c3)[nH]c12 [compound 291]	300	1100	–
Cc1cc(C2CCC(NC(=O)Cc3cccnc3)CC2)cnc1C(NC(=O)c1cc2cccc(C)c2[nH]1)C1CC1 (centres unmarked) [compound 423]	600	–	3800
Cc1ccc(F)c2cc(C(=O)N[C@@H]3CCC[C@@H](N4CCN5C(=O)NC[C@H]5C4)C3)[nH]c12 [compound 1082]	600	> 2000	–
Cc1ccc(F)c2cc(C(=O)Nc3cccc(N4CCN(C(=O)C5CCCN(C)C5)CC4)c3)[nH]c12 (centres unmarked) [compound 138]	10	300	–
Cc1cccc2cc(C(=O)Nc3ccc4nc(CN(C)C)cn4c3)[nH]c12 [compound 546]	3900	> 25000	–
Cc1ccc(F)c2cc(C(=O)NC3CCCC(N4CCN5C(=O)NCC5C4)C3)[nH]c12 (centres unmarked) [compound 1084]	100	–	500
Cc1ccc(F)c2cc(C(=O)Nc3nnc(C4CCN(C)CC4)o3)[nH]c12 [compound 557]	> 10000	> 25000	–
CNC(=NC#N)N1CCN(C2CCCC(NC(=O)c3cc4c(F)ccc(C)c4[nH]3)C2)CC1 (centres unmarked) [compound 1152]	1100	–	> 2000
Cc1ccc(F)c2cc(C(=O)Nc3cccc(N4CCOCC4CO)c3)[nH]c12 (centres unmarked) [compound 265]	200	700	–
Cc1ccc(F)c2cc(C(=O)Nc3cccc(N4CC[C@H](N(C)C)[C@H](C)C4)c3)[nH]c12 [compound 111]	8	–	200
CCC(=O)N1CCN(C2CCCC(NC(=O)c3cc4c(F)ccc(C)c4[nH]3)C2)CC1C(F)(F)F (centres unmarked) [compound 1167]	20	–	60
Cc1cccnc1C(CCC(=O)N1CCNCC1)NC(=O)c1cc2cccc(C)c2[nH]1 (centres unmarked) [compound 572]	16600	> 25000	–
CNC(=O)CN1CCN(C2CCC[C@@H](NC(=O)c3cc4c(F)ccc(C)c4[nH]3)C2)CC1 (some centres unmarked) [compound 858]	400	–	> 2000
Cc1ccc(F)c2cc(C(=O)Nc3cccc(C4(C#N)CCC(N(C)C)CC4)c3)[nH]c12 (centres unmarked) [compound 255]	30	600	–
Cc1ccc(F)c2cc(C(=O)NC3CCCC(N4CCC(N5CCOC5=O)C4)C3)[nH]c12 (centres unmarked) [compound 959]	2300	–	> 2000
Cc1cccnc1C(Cc1ccc(CN2CCOCC2)cc1)NC(=O)c1cc2c(F)ccc(C)c2[nH]1 (centres unmarked) [compound 358]	900	–	> 2000
Cc1ccc(F)c2cc(C(=O)Nc3cccc(-c4nnc(CO)s4)c3)[nH]c12 [compound 107]	40	–	200
Cc1ccc(F)c2cc(C(=O)NC3CCCC(N4CCC(N(C)C(=O)CO)C4)C3)[nH]c12 (centres unmarked) [compound 995]	8	–	30
Cc1cccc2cc(C(=O)Nc3ccc4ncc(CN(C)C)n4c3)[nH]c12 [compound 427]	400	–	4000
Cc1ccc(F)c2cc(C(=O)Nc3cccc(-c4ccnn4C)c3)[nH]c12 [compound 239]	200	–	600
Cc1cccc2cc(C(=O)Nc3ccn4ccnc4c3)[nH]c12 [compound 578]	22500	–	> 25000
Cc1ccc(F)c2cc(C(=O)NC3CCCN(C4CCN(C)C(=O)C4)C3)[nH]c12 (centres unmarked) [compound 367]	4200	–	> 2000
Cc1ccc(F)c2cc(C(=O)Nc3cccc(-c4ccc(CNS(C)(=O)=O)cc4)c3)[nH]c12 [compound 136]	400	300	–
